{"source": "patent US12054485B2", "about": "“Substituted imidazoquinolines” (BIONTECH SE, priority 2017, dated 2024)", "origin": "cited, not measured here", "tested_on": "superficial basal cell carcinomas", "details": "5% cream (Aldara), topical; cited from earlier work"}
{"smiles": "CC(C)Cn1cnc2c(N)nc3ccccc3c21", "note": "[Imiquimod, imiquimod]", "values": [{"measurement": "5-year clearance of superficial basal cell carcinomas", "value": "approx. 80%"}]}
